Patent publication US20100035793A1, “Modulators” (priority 2005, published 2010)
Non-standard residues stand in square brackets, D forms with d. No end group written: not given here. pY = N[C@@H](Cc1ccc(OP(=O)(O)O)cc1)C(=O)O

Experiments:
[1] = molecular target: T1, Stat3 (Homo sapiens, UniProt P40763); conditions: cited from earlier work
[2] = tested on: Stat3; test: Western blot of Stat3 expression in packaging cells transfected with Stat3 siRNA vectors; set-up: species or system human; conditions: 293T-based amphotropic packaging cell line, FIG. 5A left panel
Source text: Retroviral Stat3 siRNA. Four different targets designed against STAT 3 were selected and cloned into BglII and XhoI into pSUPER.retro.puro from OligoEngine, and sequenced (STAT 3 Genbank Accession number NM_139276). The four targets are named STAT 3 siRNA 1 (nt. 461-480) SEQ ID 1, STAT 3 siRNA 2 (nt. 1264-1283) SEQ ID 2, STAT 3 siRNA 3 (nt. 364-383) GATTGGGCATATGCGGCCA, and STAT 3 siRNA 4 (nt. 1662-1681) SEQ ID 3. The corresponding primers with a 9-nt short hairpin in the middle (bold) are
(§1) These vectors containing Stat3 siRNA targets and empty vector were transfected into 293T-based Phoenix-Ampho packaging cell line for 7-9 h, and the amphotropic retroviruses were harvested 48 h later, pelleted to remove nonadherent cells and cellular debris, and filtered through a […] cellulose acetate membrane. The keloid fibroblasts were infected overnight in the presence of 4 μg/ml polybrene, and replaced with fresh 10% FBS/DMEM the following day. Cells were assayed for Western blot 48 h after infection, or for XTT cell proliferation, or for migration assay which was performed by replating the cells into 8 μM Transwell membrane and fixed 24 h later as described above.
(§2) Western blot. Cells were either harvested in radioimmune precipitation assay (RIPA) buffer (150 mM NaCl, 50 mM Tris-HCl, pH 7.2, 1% deoxycholic acid, 1% Triton X-100, 0.25 mM EDTA, pH 8.0) containing protease inhibitor cocktail (Roche Diagnostics Corporation, Indianapolis, Ind., USA), or lysis buffer containing 150 mM NaCl, 10 mM Tris-HCl, pH 7.4, 0.5% Triton-X-100, 0.5% NP-40, 1 mM EDTA, 0.2 mM sodium vanadate, supplemented with protease inhibitor tablet. Total cell lysates were collected after centrifugation for 10 min at 4° C., and resolved in 7.5% or 10% polyacrylamide gel electrophoresis, and transferred to PVDF membranes (Bio-Rad Laboratories, Hercules, Calif., USA). The membranes were blotted with anti-phosphoTyr705 Stat3 antibody (1:1000 dilution; Cell Signaling, Beverly, Mass., USA) overnight at 4° C. overnight in PBS containing 1% BSA and 0.1% Tween 20, washed with PBS containing 0.2% Tween 20, and incubated with secondary anti-rabbit IgG antibody (1:2000 dilution; Sigma, Saint Louis, Mo., USA) for 1 h at room temperature, washed with PBS containing 0.2% Tween 20, followed by enhanced chemiluminescence (Amersham Biosciences, Buckinghamshire, UK) or Lumi-Light (Roche Diagnostics Corporation, Indianapolis, USA), and autoradiography. The membranes were stripped with Restore Western Blotting Stripping Buffer (Pierce, Rockford, Ill., USA) according to manufacturer's instructions and reblotted with anti-phosphoSer727 Stat3 (1:1000 dilution; Cell Signaling, Beverly, Mass., USA) and secondary anti-mouse IgG antibody (1:2000 dilution; Sigma, Saint Louis, Mo., USA). […]

[3] = tested on: Stat3; test: Western blot of Stat3 expression in KF48 infected with retroviral Stat3 siRNAs; type: cell-based, human; conditions: KF48 infected with retrovirus expressing Stat3 siRNAs
Procedure: as §1
Western blot. Cells were either harvested in radioimmune precipitation assay (RIPA) buffer (150 mM NaCl, 50 mM Tris-HCl, pH 7.2, 1% deoxycholic acid, 1% Triton X-100, 0.25 mM EDTA, pH 8.0) containing protease inhibitor cocktail (Roche Diagnostics Corporation, Indianapolis, Ind., USA), or lysis buffer containing 150 mM NaCl, 10 mM Tris-HCl, pH 7.4, 0.5% Triton-X-100, 0.5% NP-40, 1 mM EDTA, 0.2 mM sodium vanadate, supplemented with protease inhibitor tablet. Total cell lysates were collected after centrifugation for 10 min at 4° C., and resolved in 7.5% or 10% polyacrylamide gel electrophoresis, and transferred to PVDF membranes (Bio-Rad Laboratories, Hercules, Calif., USA). The membranes were blotted with anti-phosphoTyr705 Stat3 antibody (1:1000 dilution; Cell Signaling, Beverly, Mass., USA) overnight at 4° C. overnight in PBS containing 1% BSA and 0.1% Tween 20, washed with PBS containing 0.2% Tween 20, and incubated with secondary anti-rabbit IgG antibody (1:2000 dilution; Sigma, Saint Louis, Mo., USA) for 1 h at room temperature, washed with PBS containing 0.2% Tween 20, followed by enhanced chemiluminescence (Amersham Biosciences, Buckinghamshire, UK) or Lumi-Light (Roche Diagnostics Corporation, Indianapolis, USA), and autoradiography. The membranes were stripped with Restore Western Blotting Stripping Buffer (Pierce, Rockford, Ill., USA) according to manufacturer's instructions and reblotted with anti-phosphoSer727 Stat3 (1:1000 dilution; Cell Signaling, Beverly, Mass., USA) and secondary anti-mouse IgG antibody (1:2000 dilution; Sigma, Saint Louis, Mo., USA). The stripping and reblotting procedure was repeated with monoclonal anti-Stat3 (1:1000 dilution; BD Transduction Laboratories), polyclonal anti-actin (1:1000 dilution; Sigma) and monoclonal anti-collagen antibody (1:1000 dilution; MONOSAN).

[4] = tested on: collagen; test: Western blot of collagen production in KF48 keloid fibroblasts; type: cell-based, human; conditions: KF48 infected with retroviral Stat3 siRNAs, FIG. 5A right panel
Procedure: as §1
Inhibition of Stat3 was also evaluated by incubating KF48 for 30 min with various doses of Cucurbitacin I, an inhibitor of Jak2/Stat3 activation (32), or with DMSO alone as a control, followed by further incubation in normal growth media for 48 h. […] Cucurbitacin I was acquired from Galchimia (A Corufia, Spain).
as §2, with “autoradiography.” for “autoradiography. The membranes were stripped with Restore Western Blotting Stripping Buffer (Pierce, Rockford, Ill., USA) according to manufacturer's instructions and reblotted with anti-phosphoSer727 Stat3 (1:1000 dilution; Cell Signaling, Beverly, Mass., USA) and secondary anti-mouse IgG antibody (1:2000 dilution; Sigma, Saint Louis, Mo., USA).”
Methods of assessing polypeptides regulated by STAT Collagen may be regulated by STAT 3 activation. monoclonal anti-human collagen I, II, III Was purchased from MONOSAN (Uden, Netherlands). […] These were detected via western blot as described above.

[5] = tested on: KF48 keloid fibroblasts; test: Scratch-wound migration assay; type: cell-based, human; conditions: KF48 infected with Stat3 siRNA retrovirus, 15 h after wounding, vs vector
Procedure: Cell migration in keloidflbroblasts is inhibited by Stat3 siRNA and Cucurbitacin I. To examine the role of Stat3 in cell migration of skin fibroblasts, KF48 cells were infected with retrovirus expressing Stat3 siRNAs and scratch assays were performed as previously described. […] Three non-overlapping fields were acquired, and graphically illustrated as mean±SD in FIG. 8B. Transmembrane cell migration assays were also performed in triplicates as described earlier, and quantified as mean±SD (FIG. 8C). […] The right panels in FIG. 8B and 8C depict immunoblots of Stat3 and actin to show the efficiencies of inhibition by the Stat3 siRNAs.
The role of Stat3 in cell migration was also examined using Cucurbitacin I in the scratch assay. KF48 cells were first incubated with 10 μg/ml mitomycin C for 2 h, before treating for 30 min with DMSO or 1 μM Cucurbitacin I. The scratch-wound was performed, followed by further incubation in normal growth media. Pictures were taken at 0 h, 22 h and 48 h after wounding.
Migration assay. For migration assay using the scratch method, cells were grown to confluence and incubated with 10 μg/ml mitomycin C for 2 h, before a scratch wound was introduced using a yellow pipette tip. Cells were further incubated in normal growth media and pictures were taken at 0 h, 14 h, 15 h, 22 h, or 48 h after wounding. Three non-overlapping fields were captured by Axiovert 135 microscope from Zeiss and cells migrated into the wound site were counted and presented as mean±SD.

[6] = tested on: KF48 keloid fibroblasts; test: Transwell migration assay; type: cell-based, human; conditions: KF48 infected with Stat3 siRNA retrovirus, vs vector
Procedure: as §1
Migration assay was also performed using the Transwell 8.0 μM pore size polycarbonate membrane (Corning Inc.). 1×10^4 cells/well were seeded at the top of the insert in 0.2 ml serum-free DMEM, with 0.5 ml 10% FBS/DMEM in the bottom chamber as chemoattractant. 24 h later, cells were washed once in cold PBS, before fixing with 4% paraformaldehyde in PBS for 15 min at room temperature. Cells were permeabilized with 0.1% Triton X-100 in PBS for 3 min at room temperature, and stained with haematoxylin for 10 min at room temperature, followed by destain with water thrice. Cells from the top of the inserts were removed by cotton swabs, and inserts were left to dry. The inserts were mounted onto slides and three non-overlapping fields of cells migrated to the bottom of the inserts were captured using Leica DM4000 B microscope.

[7] = molecular target: T1, Stat3; conditions: cited from earlier work; remark: listed apart in the source
[8] = molecular target: JAK2 (Homo sapiens, UniProt O60674); conditions: cited from earlier work
[9] = molecular target: T1, Stat3; conditions: cited from earlier work; remark: listed apart in the source
[10] = tested on: breast carcinoma cells; conditions: cited from earlier work
[11] = tested on: KF48 keloid fibroblasts; test: XTT proliferation assay; type: cell-based, human
Source text: Inhibition of Stat3 decreases cell proliferation. Enhanced fibroblast proliferation is a characteristic of keloid tissue. In agreement with this, keloid fibroblasts grown in normal culture conditions proliferated faster than normal fibroblasts, as observed in KF48 and KF107 compared to NF2 and NF4 (FIG. 6A). To investigate whether Stat3 is involved in the enhanced keloid fibroblast proliferation, KF48 was infected with retrovirus expressing Stat3 siRNAs, and cell proliferation was examined. […] XTT proliferation assay. Cells seeded at 3,000 cells/well in 96-well plates and grown in normal growth conditions, or infected with retroviral Stat3 siRNAs, were assayed for proliferation using the XrT proliferation kit (Roche) according to the manufacturer's instructions. The readings were taken at 450 nm and referenced against 690 nm, 2 h after the addition of the XrT reagent. Each sample was performed at quadruplicates in two to three independent experiments. Data are presented as mean±SD
Cell proliferation was also investigated by treating KF48 cells with various doses of Cucurbitacin I or with DMSO control, before incubating in normal growth media and examined daily over 4 days. Cucurbitacin I concentration as low as I μM was able to inhibit cell proliferation of KF48 compared to DMSO and untreated control (0 μM), whereas Cucurbitacin I exposure at 5 μM and above seemed to cause cell death (FIG. 6C).

T1 sequence (P40763 whole entry, species assumed): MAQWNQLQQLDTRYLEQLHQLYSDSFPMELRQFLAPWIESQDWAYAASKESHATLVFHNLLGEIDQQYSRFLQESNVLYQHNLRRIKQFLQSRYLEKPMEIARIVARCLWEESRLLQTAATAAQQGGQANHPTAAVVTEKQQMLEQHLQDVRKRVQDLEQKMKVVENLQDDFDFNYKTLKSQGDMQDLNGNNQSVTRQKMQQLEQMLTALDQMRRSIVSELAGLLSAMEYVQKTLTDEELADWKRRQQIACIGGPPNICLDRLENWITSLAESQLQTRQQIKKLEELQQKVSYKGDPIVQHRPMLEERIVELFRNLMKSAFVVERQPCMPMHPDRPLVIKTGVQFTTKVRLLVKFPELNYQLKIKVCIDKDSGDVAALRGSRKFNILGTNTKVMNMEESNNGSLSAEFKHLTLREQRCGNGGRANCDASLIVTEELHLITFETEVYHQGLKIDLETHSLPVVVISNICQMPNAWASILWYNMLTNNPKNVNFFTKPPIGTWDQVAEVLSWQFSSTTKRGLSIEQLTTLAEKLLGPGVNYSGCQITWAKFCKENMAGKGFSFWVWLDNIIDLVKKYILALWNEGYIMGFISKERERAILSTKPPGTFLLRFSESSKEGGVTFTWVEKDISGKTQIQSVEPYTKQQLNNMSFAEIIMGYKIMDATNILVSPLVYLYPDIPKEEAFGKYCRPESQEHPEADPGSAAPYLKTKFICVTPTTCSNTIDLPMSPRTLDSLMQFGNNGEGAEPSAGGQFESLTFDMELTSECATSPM
JAK2, sequence (O60674 whole entry, species assumed): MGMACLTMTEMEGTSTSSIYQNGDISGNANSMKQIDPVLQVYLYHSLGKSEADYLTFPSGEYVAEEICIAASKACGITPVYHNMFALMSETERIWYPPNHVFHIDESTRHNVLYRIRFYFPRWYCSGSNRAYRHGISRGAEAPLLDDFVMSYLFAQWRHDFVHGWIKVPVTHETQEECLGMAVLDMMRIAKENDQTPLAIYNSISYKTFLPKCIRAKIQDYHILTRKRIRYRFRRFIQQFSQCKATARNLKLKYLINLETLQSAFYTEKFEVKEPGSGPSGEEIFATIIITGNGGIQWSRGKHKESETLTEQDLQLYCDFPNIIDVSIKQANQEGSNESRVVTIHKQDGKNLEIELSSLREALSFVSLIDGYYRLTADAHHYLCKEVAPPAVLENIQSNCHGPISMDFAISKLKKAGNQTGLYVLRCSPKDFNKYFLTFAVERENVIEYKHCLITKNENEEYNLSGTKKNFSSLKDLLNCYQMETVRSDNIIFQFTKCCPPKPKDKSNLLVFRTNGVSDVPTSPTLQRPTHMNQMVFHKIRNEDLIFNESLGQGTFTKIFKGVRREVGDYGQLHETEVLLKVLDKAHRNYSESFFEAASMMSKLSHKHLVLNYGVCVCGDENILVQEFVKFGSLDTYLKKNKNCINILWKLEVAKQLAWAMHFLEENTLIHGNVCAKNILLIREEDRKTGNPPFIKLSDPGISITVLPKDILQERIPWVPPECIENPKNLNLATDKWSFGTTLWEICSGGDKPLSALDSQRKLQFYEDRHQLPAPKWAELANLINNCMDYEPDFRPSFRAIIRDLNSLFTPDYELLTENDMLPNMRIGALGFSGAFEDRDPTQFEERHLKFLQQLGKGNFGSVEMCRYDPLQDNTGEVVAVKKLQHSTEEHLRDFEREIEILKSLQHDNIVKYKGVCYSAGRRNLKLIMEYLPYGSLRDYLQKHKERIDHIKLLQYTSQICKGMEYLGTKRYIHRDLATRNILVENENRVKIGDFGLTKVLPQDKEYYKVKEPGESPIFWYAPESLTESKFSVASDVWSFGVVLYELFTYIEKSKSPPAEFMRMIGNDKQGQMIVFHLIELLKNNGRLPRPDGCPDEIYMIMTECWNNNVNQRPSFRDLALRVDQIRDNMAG

Row | Molecule | inhibitory effect on Stat3 expression [2] | inhibition of Stat3 expression [3] | rate of cell migration, scratch assay [5] | cell migration, Transwell [6] | inhibition of activation of STAT 3 [7] | inhibition of activation of JAK2 [8] | other results
1 | PYLKTK: non-phosphorylated control peptide of PY*LKTK (UniProt P40763 704-709, looked up, fragment) |  |  |  |  |  |  | levels of DNA binding activities of STAT 3 ([1]; peptide present in nuclear extracts): not
2 | Stat3 siRNA 2: siRNA target nt. 1264-1283 of STAT 3, GGCGTCCAGTTCACTACTA, hairpin primers SEQ ID 6 and 7, retroviral vector | inhibitory effect | inhibit Stat3 expression | impede the rate of cell migration | hinder the cell migration |  |  | inhibition of collagen production [4]: inhibition of collagen production
3 | CC(=O)OC(C)(C)/C=C/C(=O)[C@](C)(O)[C@H]1[C@H](O)C[C@@]2(C)[C@@H]3CC=C4[C@H](C[C@H](O)C(=O)C4(C)C)[C@]3(C)C(=O)C[C@]12C [Cucurbitacin B] |  |  |  |  | inhibit | inhibit | 
4 | CC(=O)OC(C)(C)/C=C/C(=O)[C@](C)(O)[C@H]1[C@H](O)C[C@@]2(C)[C@@H]3CC=C4[C@@H](C[C@H](O)C(=O)C4(C)C)[C@]3(CO)C(=O)C[C@]12C [Cucurbitacin A] |  |  |  |  | not | inhibits | 
5 | PY*L: tripeptide derivative of PY*LKTK, Y* represents phosphotyrosine (Pro-[pY]-Leu; UniProt P40763 704-706, looked up, fragment) |  |  |  |  |  |  | STAT 3 biochemical activity and biological function [1]: inhibit
6 | C[C@@H]1CC(=O)c2c(ccc3c2C(=O)c2cccc(O)c2C3=O)C1 [STA-21] |  |  |  |  |  |  | Stat3-dependent luciferase activity [9]: inhibits; Stat3 DNA binding activity [9]: inhibits; Stat3 dimerization [9]: inhibits; effect on cells in which constitutive Stat3 signaling is absent [10]: minimal effect; survival of breast carcinoma cells with constitutive Stat3 signaling [10]: reduces the survival
7 | Cucurbitacin Q |  |  |  |  | inhibits | not | 
8 | Stat3 siRNA 1: siRNA target nt. 461-480 of STAT 3 (NM—139276), AGTCGAATGTTCTCTATCA, hairpin primers SEQ ID 4 and 5, retroviral vector | inhibitory effect | inhibit Stat3 expression | impede the rate of cell migration | hinder the cell migration |  |  | inhibition of collagen production [4]: inhibition of collagen production
9 | Stat3 siRNA 3: siRNA target nt. 364-383 of STAT 3, GATTGGGCATATGCGGCCA, retroviral vector; does not inhibit Stat3 | not | does not inhibit Stat3 | did not | did not |  |  | 
10 | Stat3 siRNA 4: siRNA target nt. 1662-1681 of STAT 3, GCGTCCATCCTGTGGTACA, hairpin primers SEQ ID 8 and 9, retroviral vector | inhibitory effect | inhibit Stat3 expression | impede the rate of cell migration | hinder the cell migration |  |  | inhibition of collagen production [4]: inhibition of collagen production; relative effectiveness among the siRNAs tested ([11]; keloid fibroblast collagen production, proliferation and migration): most effective; cell proliferation of KF48 ([11]; retroviral Stat3 siRNA, vs noninfected, vector and Stat3 siRNA 3, FIG. 6B): decreased cell proliferation
11 | CC(=O)OC(C)(C)/C=C/C(=O)[C@](C)(O)[C@H]1[C@H](O)C[C@@]2(C)[C@@H]3CC=C4[C@@H](C=C(O)C(=O)C4(C)C)[C@]3(C)C(=O)C[C@]12C [Cucurbitacin E] |  |  |  |  | inhibit | inhibit | 
